Assay results from patent US20230150929A1, “SELECTIVE NON-CYCLIC NUCLEOTIDE ACTIVATORS FOR THE CAMP SENSOR EPAC1” (The Board of Regents of The University of Texas System, priority 2020, published 2023).

Key:
EPAC1-CNBD = biological target: T1, EPAC1-CNBD (Homo sapiens, UniProt O95398); experiment: 8-NBD-cAMP competition binding assay, EPAC1-CNBD; conditions: for IC50 values as EPAC1 binders (in words): summary statement; for RFI (%) (relative fluorescence intensity), Table 4: compound 10 µM, EPAC1-CNBD 0.8 µM, 8-NBD-cAMP 62.5 nM, mean ± SEM, lower RFI = stronger binding
T1 sequence (O95398 169-318 isoform O95398-3): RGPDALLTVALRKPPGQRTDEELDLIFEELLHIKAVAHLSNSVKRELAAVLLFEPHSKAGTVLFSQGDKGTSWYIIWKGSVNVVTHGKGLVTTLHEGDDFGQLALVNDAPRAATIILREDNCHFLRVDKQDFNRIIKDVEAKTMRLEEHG

PKA = PKA activation (VASP phosphorylation, western blot) in U2OS-EPAC1 cells; assay type: cell-based; conditions: 100 µM test compound, FIG. 5
Experimental: FIG. 5. PKA activation results of representative newly discovered EPAC1 agonists. U2OS cells stably transfected with EPAC1 were treated with 100 µM of test compounds, cyclic nucleotide EPAC1 agonist 2 or 10 µM of forskolin and rolipram (F/R), cyclic AMP elevating agents, as a positive control. Active, phosphorylated VASP (P-VASP) was visualized using a phospho-specific, anti-VASP antibody. None of the test compounds promoted VASP phosphorylation in cells.
PKA and GPCR Selectivity. To investigate the EPAC selectivity of these EPAC agonists, compounds 25g, 25n and 25q were selected for further PKA activation studies, and the results are shown in FIG. 5. PKA activation was assessed by monitoring phosphorylation state of a downstream PKA effector, vasodilator-stimulated phosphoprotein (VASP).
(§1) SDS-PAGE and Western Blotting. Samples were prepared by mixing equal volumes of cell lysate and 2x SDS sample loading buffer and denaturing for 5 min at 95° C., unless indicated otherwise. Protein samples were separated by SDS-PAGE on 10% (v/v) polyacrylamide gels, for EPAC1 and VASP, or on 12.5% (v/v), for Rap1, and then transferred to nitrocellulose membranes. Membranes were then blocked for 1 h at room temperature in 5% (w/v) non-fat dry milk or 5% (w/v) BSA in Tris-buffered saline containing 0.1% (v/v) Tween 20, followed by an overnight incubation with primary antibody diluted in blocking buffer at 4° C. Subsequently, the membranes were incubated with appropriate horseradish peroxidase-conjugated secondary antibodies for 1 h at room temperature. For signal detection the SuperSignal West Pico PLUS Chemiluminescent Substrate (Thermo Scientific) was used. Images were acquired using the Fusion FX7 camera platform (Vilber). Densitometry was performed with ImageJ.

EPAC1 [1] = biological target: T2, EPAC1 (Homo sapiens, UniProt O95398); experiment: In vitro GEF screen (EPAC1 activation assay); assay type: biochemical; parameters: expressed in transfected cells; host or cells: U2OS cells (from Professor Holger Rehmann, University of Utrecht); conditions: 10 µM, FIG. 6
T2 sequence (O95398 1-923): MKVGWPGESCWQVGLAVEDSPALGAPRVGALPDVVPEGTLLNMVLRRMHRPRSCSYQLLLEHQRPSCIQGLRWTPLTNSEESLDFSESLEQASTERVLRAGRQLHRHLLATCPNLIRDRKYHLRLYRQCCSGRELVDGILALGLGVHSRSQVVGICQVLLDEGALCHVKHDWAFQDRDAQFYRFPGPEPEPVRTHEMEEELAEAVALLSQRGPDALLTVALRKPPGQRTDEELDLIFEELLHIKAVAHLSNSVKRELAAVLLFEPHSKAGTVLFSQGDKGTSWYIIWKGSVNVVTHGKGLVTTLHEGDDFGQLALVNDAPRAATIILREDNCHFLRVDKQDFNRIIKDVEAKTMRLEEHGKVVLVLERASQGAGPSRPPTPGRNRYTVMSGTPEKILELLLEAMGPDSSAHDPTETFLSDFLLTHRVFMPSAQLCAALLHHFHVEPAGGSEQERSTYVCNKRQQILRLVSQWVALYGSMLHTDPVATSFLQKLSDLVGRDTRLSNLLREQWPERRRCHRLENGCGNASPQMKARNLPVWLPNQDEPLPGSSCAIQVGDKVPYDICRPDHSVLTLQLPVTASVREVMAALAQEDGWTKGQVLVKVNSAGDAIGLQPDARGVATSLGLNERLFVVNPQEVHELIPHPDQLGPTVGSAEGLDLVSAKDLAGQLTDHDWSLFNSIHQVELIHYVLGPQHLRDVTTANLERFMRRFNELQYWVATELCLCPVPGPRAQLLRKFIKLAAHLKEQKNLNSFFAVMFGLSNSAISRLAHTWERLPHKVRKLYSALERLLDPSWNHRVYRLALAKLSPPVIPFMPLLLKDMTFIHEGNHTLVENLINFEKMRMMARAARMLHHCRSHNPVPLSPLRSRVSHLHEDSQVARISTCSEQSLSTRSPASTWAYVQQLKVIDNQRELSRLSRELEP
Experimental: FIGS. 6A-B. Identification of compounds including 25g (PW0381) 25q (PW0521) 25n (PW0577), 25u (PW0606), 25e (PW0624) and 25f (PW0625) as EPAC1 activators in an in vitro GEF screen. […] Selected compounds have been highlighted as indicated.
(§2) Series Expansion and EPAC1 vs EPAC2 Selectivity. GEF assay was used to further screen all newly synthesis analogues at 10 µM, to identify additional activating compounds to expand the series of EPAC1 agonists (FIG. 6). […] Having now identified an expanded exemplary series of compounds as potential EPAC1 activators the ability of 25e, 25f, 25g, 25n and 25u to activate EPAC1 and EPAC2 in cellular Rap1 activation assays (FIG. 7) were compared. For these U2OS cells transfected with either EPAC1 or EPAC2 (FIG. 7) was used. […] Densitometry was carried out on all immunoblots and the ratio of EPAC1 to EPAC2 activation was calculated and presented in a bar graph in FIG. 8.

EPAC1 [2] = biological target: T2, EPAC1; experiment: Active Rap1 pull-down in U2OS cells stably transfected with EPAC1; assay type: cell-based; parameters: expressed in transfected cells; host or cells: U2OS cells (from Professor Holger Rehmann, University of Utrecht); conditions: for Rap1 activation in EPAC1 cells: U2OS-EPAC1, 100 µM compound, 10 min, FIG. 7; for selectivity: ability to activate EPAC1 over EPAC2 (ratio of EPAC1 to EPAC2 activation): densitometry of Rap1-GTP immunoblots, U2OS-EPAC1 vs U2OS-EPAC2, FIG. 8
Experimental: as §2
Active Rap1 Pull-down. U2OS cells (from Professor Holger Rehmann, University of Utrecht) stably transfected with EPAC1 or EPAC2 were cultured in 6-well plates in DMEM, high glucose, supplemented with 10% (v/v) FBS, 1% (v/v) GlutaMAX, 1% (v/v) Penicillin-Streptomycin and 2 mg/l puromycin (to ensure selection of stable transfectants). 80% confluent cells were starved in culture medium with reduced FBS concentration (0.5 %) for 16 h and then stimulated for 10 min with either vehicle, 100 µM of studied compounds, or 50 µM of 2 in case of U2OS-EPAC1 or 100 µM of compound 4 for U2OS-EPAC2. Cells were then rinsed with ice-cold PBS and lysed in 0.5 ml cell lysis buffer (Cell Signaling Technologies) supplemented with 10 mM MgCl2 and 1 mM PMSF, followed by clearing the lysates by centrifugation. Cell lysates were incubated for 1 h (4° C., gentle agitation) with 40 µg GST-RalGDS-RBD immobilized on Glutathione Sepharose 4B (GE Healthcare) to selectively capture GTP-bound Rap1. Later on, the glutathione resin was separated from supernatant by centrifugation, washed three times with cell lysis buffer, then resuspended in 2x SDS sample loading buffer and denatured for 5 min at 95° C.
as §1

| RFI (%) (relative fluorescence intensity), Table 4 (EPAC1-CNBD) | Structure (SMILES) | further results |
| --- | --- | --- |
|  | O=C(COc1ccc2ccccc2c1)NS(=O)(=O)c1ccc([N+](=O)[O-])c(F)c1 [Compound 25e, N-((3-Fluoro-4-nitrophenyl)sulfonyl)-2-(naphthalen-2-yloxy)acetamide] | IC50 values as EPAC1 binders (in words) (EPAC1-CNBD): low micromolar to sub-micromolar; PKA activation (VASP phosphorylation) (PKA): unable to activate PKA; EPAC1 activity in GEF assay (EPAC1 [1]): promote EPAC1 activity more effectively than 25g, 25n and 25q; Rap1 activation in EPAC1 cells (EPAC1 [2]): roughly equivalent to the positive control; selectivity: ability to activate EPAC1 over EPAC2 (ratio of EPAC1 to EPAC2 activation) (EPAC1 [2]): best selectivity |
| 81 ± 8 | Nc1ccc(S(=O)(=O)NC(=O)COc2ccc3ccccc3c2)cc1F [Compound 25f, N-((4-Amino-3-fluorophenyl)sulfonyl)-2-(naphthalen-2-yloxy)acetamide] | IC50 values as EPAC1 binders (in words) (EPAC1-CNBD): low micromolar to sub-micromolar; PKA activation (VASP phosphorylation) (PKA): unable to activate PKA; EPAC1 activity in GEF assay (EPAC1 [1]): promote EPAC1 activity more effectively than 25g, 25n and 25q; selectivity: ability to activate EPAC1 over EPAC2 (ratio of EPAC1 to EPAC2 activation) (EPAC1 [2]): best selectivity |
| 54 ± 6 | COc1ccc2ccc(OCC(=O)NS(=O)(=O)c3cc(Cl)cc(Cl)c3)cc2c1 [Compound 25l, N-((3,5-Dichlorophenyl)sulfonyl)-2-((7-methoxynaphthalen-2-yl)oxy)acetamide] |  |
| 24 ± 2 | COc1ccc2ccc(OCC(=O)NS(=O)(=O)c3ccc([N+](=O)[O-])cc3OC)cc2c1 [Compound 25m, N-((2-Methoxy-4-nitrophenyl)sulfonyl)-2-((7-methoxynaphthalen-2-yl)oxy)acetamide] |  |
| 49 ± 4 | COc1ccc(OC)c(S(=O)(=O)NC(=O)COc2ccc3ccc(OC)cc3c2)c1 [Compound 25o, N-((2,5-Dimethoxyphenyl)sulfonyl)-2-((7-methoxynaphthalen-2-yl)oxy)acetamide] |  |
| 23 ± 4 | COc1ccc2ccc(OCC(=O)NS(=O)(=O)c3ccc(OC)c(OC)c3)cc2c1 [Compound 25p, N-((3,4-Dimethoxyphenyl)sulfonyl)-2-((7-methoxynaphthalen-2-yl)oxy)acetamide] |  |
| 36 ± 3 | Cc1cc(-c2cncc(F)c2)cc(S(=O)(=O)NC(=O)COc2ccc3ccccc3c2)c1 [Compound 25r, N-((3-(5-Fluoropyridin-3-yl)-5-methylphenyl)sulfonyl)-2-(naphthalen-2-yloxy)acetamide] |  |
| 40 ± 1 | Cc1cc(-c2ccco2)cc(S(=O)(=O)NC(=O)COc2ccc3ccccc3c2)c1 [Compound 25s, N-((3-(Furan-2-yl)-5-methylphenyl)sulfonyl)-2-(naphthalen-2-yloxy)acetamide] |  |
| 34 ± 5 | Cc1cc(-c2ccnn2C)cc(S(=O)(=O)NC(=O)COc2ccc3ccccc3c2)c1 [Compound 25t, N-((3-Methyl-5-(1-methyl-1H-pyrazol-5-yl)phenyl)sulfonyl)-2-(naphthalen-2-yloxy)acetamide] |  |
| 56 ± 6 | Cc1cc(Nc2ncccc2C(F)(F)F)cc(S(=O)(=O)NC(=O)COc2ccc3ccccc3c2)c1 [Compound 25u, N-((3-Methyl-5-((3-(trifluoromethyl)pyridin-2-yl)amino)phenyl)sulfonyl)-2-(naphthalen-2-yloxy)acetamide] | IC50 values as EPAC1 binders (in words) (EPAC1-CNBD): low micromolar to sub-micromolar; PKA activation (VASP phosphorylation) (PKA): unable to activate PKA; EPAC1 activity in GEF assay (EPAC1 [1]): promote EPAC1 activity more effectively than 25g, 25n and 25q; Rap1 activation in EPAC1 cells (EPAC1 [2]): roughly equivalent to the positive control |
| 20 ± 3 | Cc1cc(Nc2ccc(C(F)(F)F)cn2)cc(S(=O)(=O)NC(=O)COc2ccc3ccccc3c2)c1 [Compound 25v, N-((3-Methyl-5-((5-(trifluoromethyl)pyridin-2-yl)amino)phenyl)sulfonyl)-2-(naphthalen-2-yloxy)acetamide] | fold binding potency increase versus compound 3 (EPAC1-CNBD; from RFI at 10 µM): about 3 fold |
| 44 ± 2 | Cc1ccc(S(=O)(=O)NC(=O)COc2ccc3ccccc3c2)cc1 [Compound 25w, 2-(Naphthalen-2-yloxy)-N-tosylacetamide] |  |
| 67 ± 3 | O=C(COc1ccc2ccccc2c1)NS(=O)(=O)c1cccc([N+](=O)[O-])c1 [Compound 25x, 2-(Naphthalen-2-yloxy)-N-((3-nitrophenyl)sulfonyl)acetamide] |  |
| 49 ± 2 | O=C(COc1ccc2ccccc2c1)NS(=O)(=O)c1ccccc1 [Compound 25y, 2-(Naphthalen-2-yloxy)-N-(phenylsulfonyl)acetamide] |  |
| 33 ± 3 | COc1cccc(S(=O)(=O)NC(=O)COc2ccc3ccccc3c2)c1 [Compound 25z, N-((3-methoxyphenyl)sulfonyl)-2-(naphthalen-2-yloxy)acetamide] |  |
